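Tested at 5 concentrations; 48 h exposure; 96-well plates; endpoints linearly interpolated, else capped at highest concentration. The concentration for 50% growth inhibition is given as GI50. TGI marks complete inhibition of growth.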
Legend:
Assay in all cases: DTP human tumour cell line panel, 48 h
SK-MEL-5 melanoma = tested on: SK-MEL-5 melanoma
MCF7 breast = tested on: MCF7 breast
UACC-257 melanoma = tested on: UACC-257 melanoma
T-47D breast = tested on: T-47D breast
LOX IMVI melanoma = tested on: LOX IMVI melanoma
HOP-92 NSCLC = tested on: HOP-92 NSCLC
SK-OV-3 ovarian = tested on: SK-OV-3 ovarian
ACHN renal = tested on: ACHN renal
SF-539 CNS = tested on: SF-539 CNS
NCI/ADR-RES ovarian = tested on: NCI/ADR-RES ovarian
HCT-15 colon = tested on: HCT-15 colon
KM12 colon = tested on: KM12 colon
HCT-116 colon = tested on: HCT-116 colon
SK-MEL-28 melanoma = tested on: SK-MEL-28 melanoma
OVCAR-5 ovarian = tested on: OVCAR-5 ovarian
A549 NSCLC = tested on: A549 NSCLC
HT29 colon = tested on: HT29 colon
NCI-H460 lung = tested on: NCI-H460 lung
K-562 leukemia = tested on: K-562 leukemia
786-0 renal = tested on: 786-0 renal
HL-60(TB) leukemia = tested on: HL-60(TB) leukemia
OVCAR-3 ovarian = tested on: OVCAR-3 ovarian
RXF 393 renal = tested on: RXF 393 renal
U251 CNS = tested on: U251 CNS
SF-268 CNS = tested on: SF-268 CNS
NCI-H522 lung = tested on: NCI-H522 lung
SNB-19 CNS = tested on: SNB-19 CNS
SF-295 CNS = tested on: SF-295 CNS
MDA-MB-435 = tested on: MDA-MB-435
UO-31 renal = tested on: UO-31 renal
OVCAR-8 ovarian = tested on: OVCAR-8 ovarian
A498 renal = tested on: A498 renal
TK-10 renal = tested on: TK-10 renal
MOLT-4 leukemia = tested on: MOLT-4 leukemia
NCI-H23 lung = tested on: NCI-H23 lung
PC-3 prostate = tested on: PC-3 prostate
IGROV1 ovarian = tested on: IGROV1 ovarian
CCRF-CEM leukemia = tested on: CCRF-CEM leukemia
SW-620 colon = tested on: SW-620 colon
SR leukemia = tested on: SR leukemia
HCC-2998 colon = tested on: HCC-2998 colon
DU-145 prostate = tested on: DU-145 prostate
SN12C renal = tested on: SN12C renal
M14 melanoma = tested on: M14 melanoma
UACC-62 melanoma = tested on: UACC-62 melanoma
HS 578T breast = tested on: HS 578T breast
CAKI-1 renal = tested on: CAKI-1 renal
RPMI-8226 leukemia = tested on: RPMI-8226 leukemia
SK-MEL-2 melanoma = tested on: SK-MEL-2 melanoma
MDA-MB-231 breast = tested on: MDA-MB-231 breast
HOP-62 NSCLC = tested on: HOP-62 NSCLC
COLO 205 colon = tested on: COLO 205 colon
SNB-75 CNS = tested on: SNB-75 CNS
NCI-H226 lung = tested on: NCI-H226 lung
BT-549 breast = tested on: BT-549 breast
OVCAR-4 ovarian = tested on: OVCAR-4 ovarian
EKVX NSCLC = tested on: EKVX NSCLC

## O=C(c1ccccc1)c1ccc(Oc2ccc([N+](=O)[O-])cc2[N+](=O)[O-])cc1
SK-MEL-5 melanoma
  GI50: 2.02 µM
  TGI: 4.42 µM
MCF7 breast
  GI50: 3.71 µM
  TGI: 19.7 µM
UACC-257 melanoma
  GI50: 7.05 µM
  TGI: 29.2 µM
T-47D breast
  GI50: 2.82 µM
  TGI: 23.5 µM
LOX IMVI melanoma
  GI50: 3.06 µM
  TGI: 15.1 µM
HOP-92 NSCLC
  GI50: 2.87 µM
  TGI: 9.27 µM
SK-OV-3 ovarian
  GI50: 4.09 µM
  TGI: 29.4 µM
ACHN renal
  GI50: 3.72 µM
  TGI: 13.6 µM
SF-539 CNS
  GI50: 2.7 µM
  TGI: 7.32 µM
NCI/ADR-RES ovarian
  GI50: 4.12 µM
  TGI: 65.3 µM
HCT-15 colon
  GI50: 3.48 µM
  TGI: > 100 µM
KM12 colon
  GI50: 2.72 µM
  TGI: 7.34 µM
HCT-116 colon
  GI50: 3.29 µM
  TGI: 26.2 µM
SK-MEL-28 melanoma
  GI50: 7.03 µM
  TGI: 36.7 µM
OVCAR-5 ovarian
  GI50: 3.43 µM
  TGI: 24.1 µM
A549 NSCLC
  GI50: 19.7 µM
  TGI: 59.7 µM
HT29 colon
  GI50: 4.08 µM
  TGI: 20.8 µM
NCI-H460 lung
  GI50: 8.62 µM
  TGI: 33.3 µM
K-562 leukemia
  GI50: 2.63 µM
  TGI: > 100 µM
786-0 renal
  GI50: 3.46 µM
  TGI: 15.9 µM
HL-60(TB) leukemia
  GI50: 2.19 µM
  TGI: 5.89 µM
OVCAR-3 ovarian
  GI50: 2.3 µM
  TGI: 5.07 µM
RXF 393 renal
  GI50: 3.32 µM
  TGI: 11.8 µM
U251 CNS
  GI50: 3.25 µM
  TGI: 13.3 µM
SF-268 CNS
  GI50: 3.3 µM
  TGI: 11.9 µM
NCI-H522 lung
  GI50: 2.51 µM
  TGI: 6.53 µM
SNB-19 CNS
  GI50: 7.74 µM
  TGI: 34.2 µM
SF-295 CNS
  GI50: 2.62 µM
  TGI: 8.51 µM
MDA-MB-435
  GI50: 1.82 µM
  TGI: 3.98 µM
UO-31 renal
  GI50: 2.05 µM
  TGI: 7.76 µM
OVCAR-8 ovarian
  GI50: 3.39 µM
  TGI: 14.4 µM
A498 renal
  GI50: 11 µM
  TGI: 24.8 µM
TK-10 renal
  GI50: 8.33 µM
  TGI: > 100 µM
MOLT-4 leukemia
  GI50: 3.08 µM
  TGI: > 100 µM
NCI-H23 lung
  GI50: 4.33 µM
  TGI: 54.9 µM
PC-3 prostate
  GI50: 5.66 µM
  TGI: > 100 µM
IGROV1 ovarian
  GI50: 2.39 µM
  TGI: 5.61 µM
CCRF-CEM leukemia
  GI50: 2.89 µM
  TGI: > 100 µM
SW-620 colon
  GI50: 4.36 µM
  TGI: 23.7 µM
SR leukemia
  GI50: 2.6 µM
  TGI: 7.79 µM
HCC-2998 colon
  GI50: 11.4 µM
  TGI: 25.3 µM
DU-145 prostate
  GI50: 3.33 µM
  TGI: 12.8 µM
SN12C renal
  GI50: 3.25 µM
  TGI: 19.1 µM
M14 melanoma
  GI50: 3.09 µM
  TGI: 31.6 µM
UACC-62 melanoma
  GI50: 4.1 µM
  TGI: 32.2 µM
HS 578T breast
  GI50: 3.46 µM
  TGI: 38.7 µM
CAKI-1 renal
  GI50: 2.29 µM
  TGI: 5.52 µM
RPMI-8226 leukemia
  GI50: 2.56 µM
  TGI: 7.72 µM
SK-MEL-2 melanoma
  GI50: 4.57 µM
  TGI: 22.6 µM
MDA-MB-231 breast
  GI50: 6.74 µM
  TGI: 49.9 µM
HOP-62 NSCLC
  GI50: 7.81 µM
  TGI: 43.1 µM
COLO 205 colon
  GI50: 2.4 µM
  TGI: 5.46 µM
SNB-75 CNS
  GI50: 5.62 µM
  TGI: 26.7 µM
NCI-H226 lung
  GI50: 2.52 µM
  TGI: 8.57 µM
BT-549 breast
  GI50: 3.75 µM
  TGI: 40.3 µM
OVCAR-4 ovarian
  GI50: 4.18 µM
  TGI: 87.4 µM
EKVX NSCLC
  GI50: 13.2 µM
  TGI: 38.4 µM
